Measurements: PMC2009657, “Mammalian cell transformation in vitro. Six tests for carcinogenicity” (British Journal of Cancer, 1978)

Columns and labels:
[1] = in vivo; cited from earlier work
[2] = system: tester cells of the transformation assay

For O=[N+]([O-])c1ccc(F)c([N+](=O)[O-])c1 [2,4-Dinitrofluorobenzene], the “Carcinogenicity, Lit.” value [1] is listed as “+”.
In the case of CC(=O)Nc1ccc2c(c1)Cc1ccccc1-2 [2-Acetylaminofluorene], the “Carcinogenicity, Lit.” value [1] is listed as “+”.
In the case of c1ccc2c(c1)cc1ccc3cccc4ccc2c1c34 [3,4-Benzpyrene], the “Carcinogenicity, Lit.” value [1] is given as “+”.
For Croton oil, the “Carcinogenicity, Lit.” value [1] is given as “+”.
For ClC1=C(Cl)[C@]2(Cl)[C@@H]3[C@@H]4C[C@@H]([C@H]5O[C@@H]45)[C@@H]3[C@@]1(Cl)C2(Cl)Cl [Dieldrin], the “Carcinogenicity, Lit.” value [1] is given as “-”.
For Clc1ccc(C(c2ccc(Cl)cc2)C(Cl)(Cl)Cl)cc1 [D.D.T.], the “Carcinogenicity, Lit.” value [1] is listed as “-”.
In the case of Cc1ccc2cc3c(ccc4ccccc43)c3c2c1CC3 [20-Methylcholanthrene], the “Carcinogenicity, Lit.” value [1] is given as “+”.
For c1ccc2c(c1)ccc1cc3ccc4ccccc4c3nc12 [3,4,5,6-Dibenzacridine], the “Carcinogenicity, Lit.” value [1] is given as “+”.
For c1ccc(-c2ccccc2)cc1 [Biphenyl], the “Carcinogenicity, Lit.” value [1] is given as “-”.
For c1ccc2cc3ccccc3cc2c1 [Anthracene], the “Carcinogenicity, Lit.” value [1] is listed as “-”.
In the case of Nc1cc2c3ccccc3ccc2c2ccccc12 [6-Aminochrysene], the “Carcinogenicity, Lit.” value [1] is listed as “+”.
For CN(C)c1ccc(N=Nc2ccccc2)cc1 [4-Dimethylaminoazobenzene], the “Carcinogenicity, Lit.” value [1] is listed as “+”.
In the case of Cycasin acetate, the “Carcinogenicity, Lit.” value [1] is listed as “+”.
For Nc1ccc2ccc3cccc4ccc1c2c34 [3-Aminopyrene], the “Carcinogenicity, Lit.” value [1] is listed as “+”.
For O=C(O)c1ccccc1 [Benzoic acid], the “Carcinogenicity, Lit.” value [1] is listed as “-”.
For Cc1cc(-c2ccc(N)c(C)c2)ccc1N [3,3'-Dimethylbenzidine], the “Carcinogenicity, Lit.” value [1] is given as “+”.
For O=[N+]([O-])c1ccccc1-c1ccccc1 [2-Nitrobiphenyl], the “Carcinogenicity, Lit.” value [1] is given as “+”.
In the case of Nc1ccc(-c2ccc(N)cc2)cc1 [Benzidine], the “Carcinogenicity, Lit.” value [1] is given as “+”.
In the case of c1ccc2ccccc2c1 [Naphthalene], the “Carcinogenicity, Lit.” value [1] is given as “-”.
In the case of C=CCc1ccc2c(c1)OCO2 [Safrole], the “Carcinogenicity, Lit.” value [1] is listed as “+”.
For Nc1ccc(N=Nc2ccccc2)cc1 [4-Aminoazobenzene], the “Carcinogenicity, Lit.” value [1] is given as “+”.
For c1ccc2cc3c(ccc4ccccc43)cc2c1 [1,2-Benzanthracene], the “Carcinogenicity, Lit.” value [1] is listed as “+”.
For Nc1ccccc1 [Aniline], the “Carcinogenicity, Lit.” value [1] is given as “-”.
In the case of Cc1c2ccccc2c(C)c2ccccc12 [9,10-Dimeuthylanthracene], the “Carcinogenicity, Lit.” value [1] is listed as “+”.
For CCN(CC)N=O [Diethylnitrosamine], the “Carcinogenicity, Lit.” value [1] is listed as “+”.
For Cyanocobalamin [Cyanocobalamin (B12)], the “Carcinogenicity, Lit.” value [1] is listed as “-”.
In the case of CCOS(C)(=O)=O [Ethyl methanesulphonate], the “Carcinogenicity, Lit.” value [1] is listed as “+”.
In the case of Nc1ccccc1-c1ccccc1 [2-Aminobiphenyl], the “Carcinogenicity, Lit.” value [1] is listed as “+”.
In the case of C1CCC(NC2CCCCC2)CC1 [Dicyclohexylamine], the “Carcinogenicity, Lit.” value [1] is given as “-”.
In the case of Nc1ccc(Cc2ccc(N)c(Cl)c2)cc1Cl, the “Carcinogenicity, Lit.” value [1] is given as “+”.
For NC1CCCCC1 [Cyclohexylamine], the “Carcinogenicity, Lit.” value [1] is listed as “-”.
For Nc1ccc2ccccc2c1 [2-Naphthylamine], the “Carcinogenicity, Lit.” value [1] is given as “+”.
In the case of c1ccc(Nc2ccc3ccccc3c2)cc1 [N-phenyl-2-naphthylamine], the “Carcinogenicity, Lit.” value [1] is listed as “-”.
For c1ccc2[nH]cnc2c1 [Benzimidazole], the “Carcinogenicity, Lit.” value [1] is given as “-”.
For Nc1ccc(-c2ccc(N)c(Cl)c2)cc1Cl [3,3'-Dichlorobenzidine], the “Carcinogenicity, Lit.” value [1] is listed as “+”.
For Nc1ccc2c(ccc3c4ccccc4ccc23)c1 [2-Aminochrysene], the “Carcinogenicity, Lit.” value [1] is given as “+”.
For CC/C(=C(/CC)c1ccc(O)cc1)c1ccc(O)cc1 [Diethylstilboestrol], the “Carcinogenicity, Lit.” value [1] is given as “+”.
In the case of O=C1c2ccccc2-c2cccc3cccc1c23 [Benzathrone], the “Carcinogenicity, Lit.” value [1] is given as “-”.
In the case of c1cc2cccc3c4cccc5cccc(c(c1)c23)c54 [Perylene], the “Carcinogenicity, Lit.” value [1] is given as “-”.
In the case of Nc1ccc2ccccc2c1S(=O)(=O)O [2-Aminonaphthalene-1-sulphonic acid], the “Carcinogenicity, Lit.” value [1] is listed as “-”.
For O=C1c2ccccc2C(=O)c2ccccc21 [Anthraquinone], the “Carcinogenicity, Lit.” value [1] is listed as “-”.
For CC(=O)Nc1cccc2c1-c1ccccc1C2 [4-Acetylaminofluorene], the “Carcinogenicity, Lit.” value [1] is listed as “-”.
For O=S1(=O)CCCCO1 [Butanesultone], the “Carcinogenicity, Lit.” value [1] is listed as “+”.
In the case of COc1ccc(N)cc1 [p-Anisidine], the “Carcinogenicity, Lit.” value [1] is listed as “-”.
For Nc1ccc(-c2ccccc2)cc1 [4-Aminobiphenyl], the “Carcinogenicity, Lit.” value [1] is listed as “+”.
For Cc1ccc(O)c(N=Nc2c(O)cc(S(=O)(=O)O)c3ccccc23)c1 [Calmagite], the “Carcinogenicity, Lit.” value [1] is given as “-”.
For CN(C)P(=O)(N(C)C)N(C)C [Hexamethylphosphoramide], the “Carcinogenicity, Lit.” value [1] is listed as “+”.
For Nc1ccc2c(c1)Cc1cc(N)ccc1-2 [2,7-Diaminofluorene], the “Carcinogenicity, Lit.” value [1] is listed as “+”.
In the case of C=CCl [Vinyl chloride], the “Toxicity in the assay” value [2] is reported as “No toxicity observe(d”.
In the case of O=C(O)COc1ccc(Cl)cc1Cl [2,4-Dichlorophenoxyacetate], the “Carcinogenicity, Lit.” value [1] is given as “-”.
In the case of O=C(O)CCCc1ccc(N(CCCl)CCCl)cc1 [Chlorambucil], the “Carcinogenicity, Lit.” value [1] is listed as “+”.
For Morgan's base, the “Carcinogenicity, Lit.” value [1] is given as “+”.
In the case of CC(C(O)c1ccccc1)N(C)N=O (stereo not shown) [N-Nitrosoephedrine], the “Carcinogenicity, Lit.” value [1] is listed as “+”.
For Nc1ccccc1C(=O)O [Anthranilic acid], the “Carcinogenicity, Lit.” value [1] is listed as “-”.
In the case of c1ccc2c(c1)cc1ccc3cc4ccccc4c4ccc2c1c34 [3,4,9,10-Dibenzpyrene], the “Carcinogenicity, Lit.” value [1] is given as “+”.
For Oc1cccc2ccccc12 [1-Naphthol], the “Carcinogenicity, Lit.” value [1] is listed as “-”.
For COc1cc(-c2ccc(N)c(OC)c2)ccc1N [3,3'-Dimethoxybenzidine], the “Carcinogenicity, Lit.” value [1] is listed as “+”.
In the case of O=P1(N(CCCl)CCCl)NCCCO1 (stereo not shown) [Cyclophosphamide], the “Carcinogenicity, Lit.” value [1] is listed as “+”.
For c1ccc2cc(Nc3ccc(Nc4ccc5ccccc5c4)cc3)ccc2c1 [N,N'-Bis(2-naphthyl)-p-phenylenediamine], the “Carcinogenicity, Lit.” value [1] is given as “-”.
In the case of NN [Hydrazine], the “Carcinogenicity, Lit.” value [1] is given as “+”.
In the case of ClCOCCl [Bis(Chloromethyl)ether], the “Carcinogenicity, Lit.” value [1] is given as “+”.
